Measurements reported in US8927563B2, “Kinase inhibitor” (Respivert Limited, priority 2013, dated 2015).
Like-named read-outs stand apart in the source and are kept apart here.

What was measured:
[1] = biological target: Syk (Homo sapiens (Human), UniProt P43405); assay: KINOMEscan dissociation constant, Syk; format: binding
Experimental: (§1) Kinase enzyme binding activities of compounds disclosed herein may be determined using a proprietary assay which measures active site-directed competition binding to an immobilized ligand (Fabian, M. A. et al., Nature Biotechnol., 2005, 23:329-336). These assays may be conducted by DiscoverX (formerly Ambit; San Diego, Calif.). The percentage inhibition produced by incubation with a test compound may be calculated relative to the non-inhibited control.

[2] = biological target: p38 MAPKα (Homo sapiens (Human), UniProt Q16539); assay: Phosphoflow assay, cellular p38 MAPKα inhibition in Jurkat cells; format: cell-based; conditions: H2O2 stimulated, read-out: IC50 Values, phospho-p38 MAPKα (converted)
Experimental: Jurkat T cells were cultured in starve medium (RPMI 1640+5% FBS) for 24 h prior to the experiment. Cells were harvested and resuspended at 10×10^6 cells/mL in starve medium and then plated into round-bottomed 96 well plates at 1×10^6 cells/well. Serial dilutions of test compound were added (1% final DMSO concentration) for 2 h prior to stimulation. Following pre-incubation with compound, cells were stimulated with H2O2 (0.05% final) for 5 min. The reaction was stopped by centrifugation at 2000 rpm (3 min, 4° C.), then the supernatant was removed and 100 μL of cold fix/perm solution (BD Fix/Perm kit #554714) added. Plates were incubated for 20 min at 4° C. before centrifugation and washing with supplied 1× wash medium (BD Fix/Perm kit #554714). Cells were stained for either phospho-p38α (T180/182), supplied by Cell Signalling Technology (9211s), or phospho-Lck (Y394), supplied by R&D (MAB7500). Antibodies were diluted to 5 μg/mL (R&D) or 1:200 (Cell Signalling Technology) in wash medium, before being incubated 1 h at 4° C. in the dark. Following 3 repeat washes with ice cold wash buffer, secondary antibody (anti-rabbit-FITC #F1362 or anti-mouse-FITC #F2883, both from Sigma) was added at a dilution of 1:1000 and incubated for 1 h at 4° C. in the dark. […] Cells were analysed by flow cytometry using BD Accuri C6.

[3] = biological target: CYP2C9 (Homo sapiens (Human), UniProt P11712); assay: CYP2C9 inhibition with and without preincubation; format: in vitro ADME; conditions: for inhibition at 15 µM: human, read-out: 15 μM % Inh
Experimental: Assessment of certain in vitro ADME (absorption, distribution, metabolism, and excretion) parameters for Compound I was conducted by BioFocus (Saffron Walden, UK). The results reveal that Compound I is cleared rapidly by human hepatocytes and that it has a reduced liability for time-dependent cytochrome P450 inhibition.

[4] = tested on: TNBS-induced colitis; assay: TNBS-induced colitis in mice; format: in vivo
Experimental: Non-fasted, 10-12 week old, male BDF1 mice are dosed by oral gavage twice daily with either vehicle (5 mL/kg), reference item (Budesonide 2.5 mg/kg) or test compound (1 or 5 mg/kg) one day before (Day −1) stimulation of the inflammatory response by treatment with 2,4,6-trinitrobenzenesulphonic acid (TNBS) (15 mg/mL in 50% ethanol/50% saline). On Day 0 of the study, TNBS (200 μL) is administered intra-colonically via a plastic catheter with BID dosing of the vehicle, reference or test compound continuing for 2 or 4 days. During the study, animals are weighed every day and stool observations are made and recorded as a score, based on stool consistency. At the time of sacrifice on Day 2 (or Day 4), the large intestine is removed and the length and weight recorded. Sections of the colon are taken for histopathology scoring to determine disease severity.

[5] = Hydrolytic stability study; format: physicochemical; conditions: buffer, 1 mg/mL
Experimental: Chemical stability of Compound I was assessed in a mixture of DMSO and water (3:1) at a test compound concentration of 1 mg/mL
Sample Preparation • A 1.0 mg sample of test compound was dissolved in 750 μL of DMSO. Water (250 μL) was added slowly, ensuring no precipitation occurred.
Recording Stability • A 50 μL aliquot of the test solution was removed and analysed in duplicate by 5 μL HPLC injections. The peak area for the test compound was recorded following manual integration of the corresponding UV trace. • The test solution was heated to 60° C., with stirring, and 50 μL aliquots removed for HPLC analysis at 5 and 24 h timepoints.

[6] = tested on: intestinal mucosa biopsies from ulcerative colitis patients; assay: Human biopsy assay, cytokine release from biopsies of UC patients; format: cell-based; conditions: 1 μg/mL, 24 hours; relative to DMSO control 100%
Experimental: Intestinal mucosa biopsies are obtained from the inflamed regions of the colons of IBD patients. The biopsy material is cut into small pieces (2-3 mm) and placed on steel grids in an organ culture chamber at 37° C. in a 5% CO2/95% O2 atmosphere in serum-free media. DMSO control or test compound at the desired concentration are added to the tissue and incubated for 24 hr in the organ culture chamber. The supernatant is harvested for determination of IL-6, IL-8, IL-1β and TNFα levels by R&D ELISA.

[7] = tested on: rat, Cynomolgus macaque or human hepatocytes; assay: Analysis of metabolites in hepatocyte incubations; format: in vitro ADME; conditions: 10 μM, 0, 60 and 90 minutes
Experimental: Studies were conducted by BioFocus (Saffron Walden, UK) to determine the metabolic fate of Compound I following incubation with rat, Cynomolgus macaque or human hepatocytes.
Separate incubations (n=3) of Compound I (10 μM initial concentration) or DMSO control, were performed with cryopreserved hepatocytes from each species (0.5 million cell/mL) at 37° C. for 0, 60 and 90 minutes before termination of reactions and compound extraction with acetonitrile. Sample replicates were pooled prior to analysis.
Potential metabolites were identified using time-of-flight (TOF) and triple quadruple (TQ) mass spectrometers.

[8] = Pharmacokinetics after intravenous administration to rats; format: in vivo; conditions: intravenous 0.25 mg/kg
Experimental: Studies were conducted by Sai Life Sciences (Hinjewadi, Pune, India) to investigate the plasma pharmacokinetics and total colon tissue distribution of Compound I. In particular, pharmacokinetic studies were carried out in: • male C57BL/6 mice, following a single oral administration; and • male Wistar rats following a single intravenous or oral administration.

[9] = biological target: B-Raf (V600E) (Homo sapiens (Human), UniProt P15056, V600E); assay: KINOMEscan binding of B-Raf (V600E) to standard ligand
Experimental: as §1

[10] = 5 mg/kg orally BID, 2 days, SMEDDS vehicle

Chain of CYP2C9 (P11712 whole entry): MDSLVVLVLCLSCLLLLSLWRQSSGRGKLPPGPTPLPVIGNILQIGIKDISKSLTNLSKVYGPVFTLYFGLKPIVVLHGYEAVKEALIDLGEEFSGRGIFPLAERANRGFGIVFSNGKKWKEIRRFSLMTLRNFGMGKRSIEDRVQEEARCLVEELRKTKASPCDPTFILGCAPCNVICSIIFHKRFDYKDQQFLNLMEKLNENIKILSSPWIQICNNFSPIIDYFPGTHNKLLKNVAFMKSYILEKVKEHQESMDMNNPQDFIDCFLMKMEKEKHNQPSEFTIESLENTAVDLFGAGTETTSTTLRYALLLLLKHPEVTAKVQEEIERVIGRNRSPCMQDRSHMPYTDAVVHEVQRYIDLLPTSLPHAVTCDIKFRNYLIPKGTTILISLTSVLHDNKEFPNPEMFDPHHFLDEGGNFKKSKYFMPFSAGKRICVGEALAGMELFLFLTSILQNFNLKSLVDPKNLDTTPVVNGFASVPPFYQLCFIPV
Chain of p38 MAPKα (Q16539 whole entry, looked up): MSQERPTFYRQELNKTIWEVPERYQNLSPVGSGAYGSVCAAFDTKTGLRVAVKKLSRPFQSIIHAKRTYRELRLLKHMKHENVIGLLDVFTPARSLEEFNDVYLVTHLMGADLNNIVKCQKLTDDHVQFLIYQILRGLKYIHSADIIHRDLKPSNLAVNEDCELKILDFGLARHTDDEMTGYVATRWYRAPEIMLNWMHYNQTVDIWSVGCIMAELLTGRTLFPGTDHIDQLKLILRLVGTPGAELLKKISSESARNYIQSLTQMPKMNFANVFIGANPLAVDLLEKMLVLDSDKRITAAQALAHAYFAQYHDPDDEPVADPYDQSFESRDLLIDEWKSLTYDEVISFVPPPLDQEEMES
Chain of B-Raf (V600E) (P15056 whole entry V600E): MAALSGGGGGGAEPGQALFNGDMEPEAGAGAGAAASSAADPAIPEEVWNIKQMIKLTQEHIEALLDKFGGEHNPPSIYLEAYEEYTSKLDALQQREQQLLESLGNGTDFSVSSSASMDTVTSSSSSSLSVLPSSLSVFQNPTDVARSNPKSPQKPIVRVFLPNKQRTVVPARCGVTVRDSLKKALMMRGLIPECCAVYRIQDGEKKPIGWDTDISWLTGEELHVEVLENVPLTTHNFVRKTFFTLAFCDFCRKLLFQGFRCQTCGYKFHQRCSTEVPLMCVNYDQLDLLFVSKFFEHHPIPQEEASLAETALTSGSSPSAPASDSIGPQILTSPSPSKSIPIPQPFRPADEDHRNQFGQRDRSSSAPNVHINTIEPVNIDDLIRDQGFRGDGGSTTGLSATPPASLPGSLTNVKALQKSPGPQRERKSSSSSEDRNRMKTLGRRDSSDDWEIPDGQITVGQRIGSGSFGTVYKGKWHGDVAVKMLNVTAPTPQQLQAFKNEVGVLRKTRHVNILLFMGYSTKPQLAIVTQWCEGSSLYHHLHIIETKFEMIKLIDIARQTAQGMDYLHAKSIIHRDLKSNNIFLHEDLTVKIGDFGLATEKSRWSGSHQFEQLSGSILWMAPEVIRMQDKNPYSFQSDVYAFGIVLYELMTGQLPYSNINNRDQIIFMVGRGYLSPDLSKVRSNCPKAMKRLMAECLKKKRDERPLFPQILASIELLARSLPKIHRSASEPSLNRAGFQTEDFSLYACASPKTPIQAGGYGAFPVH

Compound: C#Cc1cc(Nc2nccc(Oc3ccc(NC(=O)Nc4cc(C(C)(C)C)cc(NS(C)(=O)=O)c4OC)c4ccccc34)n2)cc(C(=O)NCCOCCOCCOC)c1 [Compound I, 3-((4-((4-(3-(5-(tert-Butyl)-2-methoxy-3-(methylsulfonamido)phenyl)ureido)naphthalen-1-yl)oxy)pyrimidin-2-yl)amino)-5-ethynyl-N-(2-(2-(2-methoxyethoxy)ethoxy)ethyl)benzamide]
- Kd [1]: 0.021 µM
- IC50 [2]: 0.0238 µM
- IC50 ([3]; CYP2C9, 0 min preincubation): > 15 µM
- IC50 ([3]; CYP2C9, 30 min preincubation): > 15 µM
- inhibition at 15 µM ([3]; CYP2C9, 0 min preincubation): 21%
- inhibition at 15 µM ([3]; CYP2C9, 30 min preincubation): 37%
- LP inflammation [4, 10]: 3.8 ± 0.4
- Ulcer grade [4, 10]: 3.6 ± 0.5
- inflammatory cell infiltrate in the reticular and laminar propria zones ([4]; dosed orally at 5 mg/kg): marked reduction
- ulcer grade and epithelial repair compared to the vehicle control ([4]; dosed orally at 5 mg/kg): marked improvements
- % Parent Remaining ([5]; 0 h): 100%
- % Parent Remaining ([5]; 5 h): 100%
- % Parent Remaining ([5]; 24 h): 100%
- IL-1β release from biopsies of UC patients [6]: 5 ± 8%
- IL-6 release from biopsies of UC patients [6]: 17 ± 23%
- IL-8 release from biopsies of UC patients [6]: 9 ± 15%
- number of metabolites formed in hepatocytes [7]: 9
- products connected to metabolism at the naphthalene moiety [7]: no products were noted
- CI [8]: 0.288 L/h/kg
- AUC(0-inf) ([8]; male, Wistar, rat, plasma): 0.871 µg·h/mL
- AUC(0-t) ([8]; male, Wistar, rat, plasma): 0.869 µg·h/mL
- C0 ([8]; male, Wistar, rat, plasma): 6.54 µg/mL
- half-life ([8]; male, Wistar, rat, plasma): 6 min
- Vd ([8]; male, Wistar, rat, plasma, read-out: Vss): 0.03 L/kg
- effect on binding of B-Raf (V600E) to its standard ligand [9]: did not have any significant effect
